From ChEMBL document CHEMBL1152546, “N-[2-chloro-9H-purin-6-yl]-N-cyclopropylglycylamino acids and derivatives: synthesis, evaluation as a class of novel analgesics, and 3D QSAR analysis” (2009)

Key:
Mus musculus [1] = test: Analgesic activity in ICR mouse assessed as pain threshold variation at 25 umol/kg, po administered as single dose measured after 60 mins by tail flick test relative to control; type: functional
Mus musculus [2] = test: Analgesic activity in ICR mouse assessed as pain threshold variation at 25 umol/kg, po administered as single dose measured after 150 mins by tail flick test relative to control; type: functional
Mus musculus [3] = test: Analgesic activity in ICR mouse assessed as pain threshold variation at 12.5 umol/kg, po administered as single dose measured after 90 mins by tail flick test relative to control; type: functional
Mus musculus [4] = test: Analgesic activity in ICR mouse assessed as pain threshold variation at 6.25 umol/kg, po administered as single dose measured after 90 mins by tail flick test relative to control; type: functional
Mus musculus [5] = test: Analgesic activity in ICR mouse assessed as pain threshold variation at 25 umol/kg, po administered as single dose measured after 120 mins by tail flick test relative to control; type: functional
Mus musculus [6] = test: Analgesic activity in ICR mouse assessed as pain threshold variation at 25 umol/kg, po administered as single dose measured after 30 mins by tail flick test relative to control; type: functional
Mus musculus [7] = test: Analgesic activity in ICR mouse assessed as pain threshold variation at 6.25 umol/kg, po administered as single dose measured after 30 mins by tail flick test relative to control; type: functional
Mus musculus [8] = test: Analgesic activity in ICR mouse assessed as pain threshold variation at 25 umol/kg, po administered as single dose measured after 180 mins by tail flick test relative to control; type: functional
Mus musculus [9] = test: Analgesic activity in ICR mouse assessed as pain threshold variation at 12.5 umol/kg, po administered as single dose measured after 60 mins by tail flick test relative to control; type: functional
Mus musculus [10] = test: Analgesic activity in ICR mouse assessed as pain threshold variation at 12.5 umol/kg, po administered as single dose measured after 150 mins by tail flick test relative to control; type: functional
Mus musculus [11] = test: Analgesic activity in ICR mouse assessed as pain threshold variation at 6.25 umol/kg, po administered as single dose measured after 150 mins by tail flick test relative to control; type: functional
Mus musculus [12] = test: Analgesic activity in ICR mouse assessed as pain threshold variation at 12.5 umol/kg, po administered as single dose measured after 30 mins by tail flick test relative to control; type: functional
Mus musculus [13] = test: Analgesic activity in ICR mouse assessed as pain threshold variation at 25 umol/kg, po administered as single dose measured after 90 mins by tail flick test relative to control; type: functional
Mus musculus [14] = test: Analgesic activity in ICR mouse assessed as pain threshold variation at 6.25 umol/kg, po administered as single dose measured after 60 mins by tail flick test relative to control; type: functional
Mus musculus [15] = test: Analgesic activity in ICR mouse assessed as pain threshold variation at 12.5 umol/kg, po administered as single dose measured after 120 mins by tail flick test relative to control; type: functional
Mus musculus [16] = test: Analgesic activity in ICR mouse assessed as pain threshold variation at 6.25 umol/kg, po administered as single dose measured after 120 mins by tail flick test relative to control; type: functional
Mus musculus [17] = test: Analgesic activity in ICR mouse assessed as pain threshold variation at 12.5 umol/kg, po administered as single dose measured after 180 mins by tail flick test relative to control; type: functional
Mus musculus [18] = test: Analgesic activity in ICR mouse assessed as pain threshold variation at 6.25 umol/kg, po administered as single dose measured after 180 mins by tail flick test relative to control; type: functional
Mus musculus [19] = test: Analgesic activity in po dosed ICR mouse assessed as pain threshold variation administered as single dose measured after 30 to 180 mins by tail flick test; type: functional, organism-based

| SMILES | Activity (Mus musculus [1]) [%] | Activity (Mus musculus [2]) [%] | Activity (Mus musculus [3]) [%] | Activity (Mus musculus [4]) [%] | Activity (Mus musculus [5]) [%] | Activity (Mus musculus [6]) [%] | Activity (Mus musculus [7]) [%] | Activity (Mus musculus [8]) [%] | Activity (Mus musculus [9]) [%] | Activity (Mus musculus [10]) [%] | Activity (Mus musculus [11]) [%] | Activity (Mus musculus [12]) [%] | Activity (Mus musculus [13]) [%] | Activity (Mus musculus [14]) [%] | Activity (Mus musculus [15]) [%] | Activity (Mus musculus [16]) [%] | Activity (Mus musculus [17]) [%] | Activity (Mus musculus [18]) [%] | Activity (Mus musculus [19]) |
| --- | --- | --- | --- | --- | --- | --- | --- | --- | --- | --- | --- | --- | --- | --- | --- | --- | --- | --- | --- |
| CC(C)[C@H](NC(=O)CN(c1nc(Cl)nc2[nH]cnc12)C1CC1)C(=O)OCc1ccccc1 | 55.49 | 17.91 | 23.59 | 11.83 | 27.33 | 33.43 | 7.69 | 12.93 | 26.47 | 5.43 | 3.07 | 15.95 | 51.32 | 13.94 | 14.96 | 9.26 | 4.58 | 3.22 | Dose-dependent effect |
| CC(C)C[C@H](NC(=O)CN(c1nc(Cl)nc2[nH]cnc12)C1CC1)C(=O)O | 36.37 | 9.13 | 20.93 | 16.17 | 18.74 | 23.4 | 8.01 | 3.63 | 17.3 | 7.77 | 5.56 | 15.99 | 26.97 | 10.66 | 13.32 | 9.44 | 5.5 | 2.8 | Dose-dependent effect |
| CC(C)[C@H](NC(=O)CN(c1nc(Cl)nc2[nH]cnc12)C1CC1)C(=O)O | 38.79 | 7.86 |  |  | 17.06 | 31.15 |  | 3.04 |  |  |  |  | 30.28 |  |  |  |  |  |  |
| NC(=O)C[C@H](NC(=O)CN(c1nc(Cl)nc2[nH]cnc12)C1CC1)C(=O)O | 43.14 | 7.51 |  |  | 17.03 | 29.73 |  | 5.66 |  |  |  |  | 20.06 |  |  |  |  |  |  |
| O=C(CN(c1nc(Cl)nc2[nH]cnc12)C1CC1)N[C@@H](Cc1c[nH]c2ccccc12)C(=O)OCc1ccccc1 | 42.24 | 10.71 |  |  | 21.51 | 30.67 |  | 7.78 |  |  |  |  | 40.71 |  |  |  |  |  |  |
| O=C(CN(c1ncnc2c1ncn2C1CCCCO1)C1CC1)N[C@@H](Cc1c[nH]c2ccccc12)C(=O)OCc1ccccc1 (some centres not stated) | 51.9 | 11.45 |  |  | 22.58 | 43.53 |  | 5.15 |  |  |  |  | 38.93 |  |  |  |  |  |  |
| O=C(O)CNC(=O)CN(c1nc(Cl)nc2[nH]cnc12)C1CC1 | 38.89 | 9.08 |  |  | 19.81 | 32.16 |  | 8.11 |  |  |  |  | 32.31 |  |  |  |  |  |  |
| CCOC(=O)CN(c1nc(Cl)nc2c1ncn2C1CCCCO1)C1CC1 (configuration not stated) | 22.64 | 11.85 |  |  | 14.91 | 9.92 |  | 5.33 |  |  |  |  | 13.04 |  |  |  |  |  |  |
| O=C(CN(c1ncnc2c1ncn2C1CCCCO1)C1CC1)N[C@@H](Cc1cnc[nH]1)C(=O)OCc1ccccc1 (some centres not stated) | 36.43 | 5.31 |  |  | 10.16 | 24.98 |  | 4.38 |  |  |  |  | 14.45 |  |  |  |  |  |  |
| CC[C@H](C)[C@H](NC(=O)CN(c1nc(Cl)nc2[nH]cnc12)C1CC1)C(=O)OCc1ccccc1 | 40.63 | 6.9 |  |  | 21.97 | 41.39 |  | 3.38 |  |  |  |  | 36.28 |  |  |  |  |  |  |
| CC(C)[C@H](NC(=O)CN(c1ncnc2c1ncn2C1CCCCO1)C1CC1)C(=O)OCc1ccccc1 (some centres not stated) | 34.85 | 21.08 |  |  | 25.79 | 21.83 |  | 5.65 |  |  |  |  | 30.14 |  |  |  |  |  |  |
